Experiment: Photodegradation of UV absorber combinations, plate-test (recovery after UV irradiation)
Assay type: physicochemical
Conditions: 0-50 MED UV; for Photostabilization of components (e) and (f) after irradiation (summary of Table 5): in presence of piperazine bi-aminobenzophenone
Procedure: For the determination of photodegradation the so-called “plate-test” is employed: • 2 μl/cm^2 of the formulations are spread on quartz plates (sand-blasted surface of 2.8 cm^2), and rinsed off the plates after 0, 5, 10, 20, and 50 MED of UV irradiation using an Atlas CPS+ solar simulator.
The substances tagged with an asterix (*) are those the recovery percentages refer to. The percentage of component (a) refers to the active.
The experimental error in terms of the standard deviation is in the range of ±3%.

| SMILES | Photostabilization of components (e) and (f) after irradiation (summary of Table 5) | Photostabilization of component (b) after irradiation (summary of Table 4) (combination with piperazine bi-aminobenzophenone, bis-ethylhexyloxyphenol methoxyphenyl triazine added) | Photostabilization of component (b) after irradiation (summary of Table 3) (combination with piperazine bi-aminobenzophenone, octocrylene added) |
| --- | --- | --- | --- |
| CCCCC(CC)COC(=O)c1ccc(Nc2nc(Nc3ccc(C(=O)NC(C)(C)C)cc3)nc(Nc3ccc(C(=O)OCC(CC)CCCC)cc3)n2)cc1 (stereo not shown) [di-octyl butamido triazone, Benzoic acid, 4,4′-[[6-[[4-[[(1,1-dimethylethyl)amino]carbonyl]-phenyl]amino]1,3,5-triazine-2,4-diyl]diimino]bis-, bis(2-ethyl-hexyl)ester] | photostabilized in the presence of piperazine bi-aminobenzophenone |  |  |
| CCCCC(CC)COC(=O)C=Cc1ccc(OC)cc1 (stereo not shown) [ethylhexyl methoxycinnamate, 2-ethylhexyl 4-methoxycinnamate] |  | can be stabilized by addition of bis-ethylhexyloxyphenol methoxyphenyl triazine | can be stabilized by addition of octocrylene |
| CCCCC(CC)COC(=O)c1ccc(Nc2nc(Nc3ccc(C(=O)OCC(CC)CCCC)cc3)nc(Nc3ccc(C(=O)OCC(CC)CCCC)cc3)n2)cc1 (stereo not shown) [ethylhexyl triazone, Ethylhexyl triazone] | photostabilized in the presence of piperazine bi-aminobenzophenone |  |  |
